Some test systems named below: A498; SW-620; SNB-19; SN12C; CAKI-1; COLO 205; Malme-3M; HCT-15; UACC-62; HT-29; MOLT-4; NCI-H226; OVCAR-5; KM12; SK-MEL-28; OVCAR-4; M19-MEL; SNB-75; SF-295; HL-60.
What all share (assay): NCI anticancer screen, dose series, 48 h

The structures appear in SMILES notation.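 48-hour exposure; five concentrations; linearly interpolated endpoints. GI50 marks 50% less growth.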 Calls of active or inactive are those of the source. Rule as the data show it: active = GI50 up to about 1.1 µM and inactive = higher. A value given as a limit tells only on which side of the number the result lay.

For the molecule `Cc1nc2ccccc2c(=O)n1Nc1ccc(C(=O)O)cc1`, the GI50 with A498, in the assay with SW-620, in the assay on SNB-19, in the assay on SN12C, in the assay with CAKI-1 and with COLO 205 was > 100 µM (inactive) in each case. For the same molecule, the GI50 in the assay on Malme-3M was > 100 µM (inactive); in the assay on HCT-15 it was over 100 µM; in the assay with UACC-62, > 100 µM (inactive); in the assay with HT-29, > 100 µM (inactive); in the assay on MOLT-4, > 100 µM (inactive); in the assay on NCI-H226 it was > 100 µM (inactive). In addition, the GI50 in the assay with OVCAR-5, in the assay with KM12, with SK-MEL-28, in the assay on OVCAR-4, with M19-MEL and with SNB-75 was > 100 µM (inactive) in each case. The GI50 with SF-295 and in the assay with HL-60 was > 100 µM (inactive) in each case.

As to `c1ccc2c3c(ccc2c1)-c1[nH]ncc1CCO3`, the GI50 in the assay on A498 is > 56 µM (inactive); in the assay on SW-620 it was 37.8 µM (inactive); in the assay on SNB-19, 47.1 µM (inactive); in the assay on SN12C it was 29.2 µM (inactive); with CAKI-1, 33.4 µM (inactive); in the assay with COLO 205 it was 37.2 µM (inactive). Moreover, the GI50 with Malme-3M is 45.7 µM (inactive); with HCT-15, 20.5 µM; in the assay on UACC-62, 29.9 µM (inactive); with HT-29 it was 32.5 µM (inactive); with MOLT-4 it was 20.1 µM (inactive); in the assay with OVCAR-5 it was 25.8 µM (inactive). Also, the GI50 in the assay with KM12 is 37.2 µM (inactive); in the assay with SK-MEL-28 it was 50.8 µM (inactive); with OVCAR-4, 29.7 µM (inactive); in the assay with M19-MEL it was 34 µM (inactive); in the assay on SNB-75, 27.5 µM (inactive); with SF-295 it was 28.4 µM (inactive). In the assay on HL-60, the GI50 is 14.6 µM (inactive).

As to `NC(=O)c1c[se]c(C2OC(COP(=O)(O)CP(=O)(O)OCC3OC(n4cnc5c(N)ncnc54)C(O)C3O)C(O)C2O)n1` (stereo unspecified), the GI50 in the assay on A498 was > 100 µM (inactive); in the assay with SW-620 it was 30.9 µM (inactive); in the assay on SNB-19, > 100 µM (inactive); in the assay with SN12C, > 100 µM (inactive); in the assay on CAKI-1, 43.3 µM (inactive); in the assay on COLO 205 it was 93.1 µM (inactive). In addition, the GI50 in the assay with Malme-3M is > 100 µM (inactive); in the assay on HT-29, 53.2 µM (inactive); in the assay on MOLT-4, 35.3 µM (inactive); in the assay with NCI-H226 it was > 100 µM (inactive); in the assay with OVCAR-5 it was > 100 µM (inactive); in the assay on KM12 it was 66.5 µM (inactive). For the same molecule, the GI50 with SK-MEL-28 is > 100 µM (inactive); in the assay on OVCAR-4 it was > 100 µM (inactive); in the assay with M19-MEL, > 100 µM (inactive); in the assay on SNB-75, > 100 µM (inactive); in the assay with SF-295, 53.3 µM (inactive); in the assay with HL-60 it was 28.2 µM (inactive).

With `Cc1ccc(S(=O)(=O)OC[C@@H]2CO2)cc1`, the GI50 in the assay with A498, in the assay with SW-620, in the assay on SNB-19, in the assay with SN12C, with CAKI-1 and in the assay with COLO 205 was > 100 µM (inactive) throughout. The GI50 is > 100 µM (inactive) in the assay on Malme-3M; over 100 µM with HCT-15; > 100 µM (inactive) with HT-29; > 100 µM (inactive) with MOLT-4; > 100 µM (inactive) in the assay on NCI-H226; > 100 µM (inactive) in the assay with OVCAR-5. Also, the GI50 in the assay with KM12, in the assay on SK-MEL-28, in the assay on OVCAR-4, in the assay with M19-MEL, in the assay on SNB-75 and with HL-60 was > 100 µM (inactive) throughout.

As for `O=C(c1ccccc1)c1nc2ccc(Cl)cc2c2c1CCCO2`, the GI50 with SW-620, in the assay on SNB-19, in the assay on SN12C, in the assay on CAKI-1, with COLO 205 and in the assay on Malme-3M was > 100 µM (inactive) each time. The GI50 with HCT-15 is over 100 µM; in the assay on UACC-62, > 100 µM (inactive); with HT-29, > 100 µM (inactive); in the assay on MOLT-4 it was > 100 µM (inactive); in the assay on NCI-H226, > 100 µM (inactive); in the assay on OVCAR-5, > 100 µM (inactive). Moreover, the GI50 in the assay on KM12 is > 100 µM (inactive); in the assay on SK-MEL-28, 33.7 µM (inactive); with OVCAR-4, > 100 µM (inactive); in the assay with M19-MEL, > 100 µM (inactive); in the assay on SF-295 it was 50 µM (inactive).

As to `CCCN(CCC)c1cc2c(cc1F)c(=O)c(C(=O)O)cn2-c1ccc(N2CCN(C)CC2)cn1`, the GI50 with A498 is 19.8 µM (inactive); in the assay with SW-620 it was 16.2 µM (inactive); with SNB-19, 15.3 µM (inactive); with SN12C, 22.5 µM (inactive); with CAKI-1, 15.3 µM (inactive); in the assay on COLO 205, 13.4 µM (inactive). The GI50 is 13.3 µM (inactive) in the assay on Malme-3M; 22.9 µM in the assay on HCT-15; 18.5 µM (inactive) with UACC-62; 14.7 µM (inactive) in the assay with HT-29; 16.2 µM (inactive) in the assay with MOLT-4; 16.7 µM (inactive) with NCI-H226. For the same molecule, the GI50 in the assay on OVCAR-5 was 18.8 µM (inactive); with KM12, 15.1 µM (inactive); in the assay on SK-MEL-28 it was 19.6 µM (inactive); in the assay on OVCAR-4 it was 19.2 µM (inactive); with SNB-75, 14.7 µM (inactive); in the assay on SF-295 it was 17.8 µM (inactive). For the same molecule, the GI50 with HL-60 was 6.18 µM (inactive).

Consider `Cc1c2cnccc2c(C)c2c1c1ccccc1n2CC1CO1` (stereo unspecified), for which the GI50 is 0.247 µM (active) with A498; 0.345 µM (active) with SW-620; 2.04 µM (inactive) in the assay on SNB-19; 0.174 µM (active) in the assay on SN12C; 1.34 µM (inactive) with CAKI-1; 1.16 µM (inactive) in the assay with COLO 205. Moreover, the GI50 in the assay with Malme-3M was 1.75 µM (inactive); in the assay with HCT-15, 1.54 µM; in the assay with UACC-62, 1.63 µM (inactive); in the assay on HT-29, 1.72 µM (inactive); in the assay with MOLT-4, 0.0213 µM (active); in the assay on NCI-H226, 1.76 µM (inactive). For the same molecule, the GI50 is 2.05 µM (inactive) in the assay with OVCAR-5; 1.58 µM (inactive) in the assay with KM12; 1.71 µM (inactive) with SK-MEL-28; 1.99 µM (inactive) in the assay on OVCAR-4; 1.31 µM (inactive) with M19-MEL; 0.652 µM (active) in the assay with SNB-75. For the same molecule, the GI50 in the assay with SF-295 is 1.33 µM (inactive); in the assay on HL-60, 0.0283 µM (active).

For `O=C(Cc1nc2ccc(C(=O)c3ccccc3)cc2nc1O)C(=O)Nc1nc2ccccc2[nH]1`, the GI50 was 42.9 µM (inactive) with SW-620; > 100 µM (inactive) with SNB-19; > 100 µM (inactive) with SN12C; 40.2 µM (inactive) with CAKI-1; 36.8 µM (inactive) with COLO 205; 87.9 µM (inactive) in the assay with Malme-3M. Further, the GI50 was 75 µM with HCT-15; 38.7 µM (inactive) in the assay on UACC-62; 52.7 µM (inactive) with HT-29; 42.8 µM (inactive) in the assay on MOLT-4; 24.6 µM (inactive) in the assay with KM12; 98.6 µM (inactive) with SK-MEL-28. Also, the GI50 with OVCAR-4 is 61.7 µM (inactive); with M19-MEL, 56.1 µM (inactive); in the assay with SNB-75 it was 31.7 µM (inactive); in the assay on SF-295, 28.4 µM (inactive); in the assay with HL-60, 35.8 µM (inactive).

Take `CC1C2CC(CC2O)C1(C)C` (stereo unspecified): the GI50 in the assay with A498, in the assay on SW-620, in the assay with SNB-19, with SN12C, in the assay with CAKI-1 and in the assay on COLO 205 was > 100 µM (inactive) throughout. For the same molecule, the GI50 with Malme-3M, with UACC-62, in the assay with HT-29, in the assay on MOLT-4, with NCI-H226 and in the assay with OVCAR-5 was > 100 µM (inactive) in each case. The GI50 in the assay on KM12, in the assay on SK-MEL-28, with OVCAR-4, with SNB-75, in the assay with SF-295 and with HL-60 was > 100 µM (inactive) in each case.

Turning to `CC(=O)NNc1nc(C)c(C(=O)NNC(=O)C(=O)Nc2ccccc2C#N)s1`, the GI50 with A498, in the assay with SW-620, in the assay on SNB-19, in the assay with SN12C, in the assay with CAKI-1 and in the assay on COLO 205 was > 100 µM (inactive) in each case. Also, the GI50 in the assay with Malme-3M was > 100 µM (inactive); with HCT-15 it was over 100 µM; in the assay with UACC-62, > 100 µM (inactive); in the assay on HT-29, > 100 µM (inactive); in the assay on MOLT-4, > 100 µM (inactive); in the assay on NCI-H226, > 100 µM (inactive). Moreover, the GI50 in the assay on OVCAR-5 was > 100 µM (inactive); in the assay with KM12, 50.1 µM (inactive); in the assay on SK-MEL-28, > 100 µM (inactive); in the assay with OVCAR-4, > 100 µM (inactive); with M19-MEL, > 100 µM (inactive); with SNB-75 it was > 100 µM (inactive). The GI50 with SF-295 and with HL-60 was > 100 µM (inactive) throughout.

For the molecule `CCOC(=O)C(Cc1ccc(N=NN(C)C)cc1)NC(=O)CC1c2ccccc2-c2ccccc21` (stereo unspecified), the GI50 in the assay on A498 was > 100 µM (inactive); in the assay with SW-620, > 100 µM (inactive); in the assay with SNB-19, > 100 µM (inactive); in the assay on SN12C it was > 100 µM (inactive); with CAKI-1, > 100 µM (inactive); in the assay on COLO 205, 92.7 µM (inactive). The GI50 in the assay with Malme-3M is > 100 µM (inactive); in the assay with HCT-15 it was over 100 µM; with UACC-62 it was 42.9 µM (inactive); in the assay on HT-29, > 100 µM (inactive); in the assay on MOLT-4, 38.3 µM (inactive); in the assay with NCI-H226, > 100 µM (inactive). In addition, the GI50 in the assay on OVCAR-5 was > 100 µM (inactive); in the assay on KM12, > 100 µM (inactive); in the assay with SK-MEL-28, > 100 µM (inactive); in the assay with OVCAR-4 it was > 100 µM (inactive); in the assay on M19-MEL, 49.3 µM (inactive); in the assay with SNB-75, > 100 µM (inactive). The GI50 with SF-295 and in the assay on HL-60 was > 100 µM (inactive) in each case.
